According to patent US10766928B2, “Targeted conformationally-constrained kinked endosomal disrupting peptides” (priority 2012, dated 2020):
In brackets after ≈: the same amount, converted by molar mass. Like-named read-outs stand apart in the source and are kept apart here. Non-standard residues stand in square brackets, D forms with d. Residues, ends and D or L forms follow the SMILES beside them. *: point of attachment. Pentanoyl(5-NH-cholesteryl) = CC(C)CCC[C@@H](C)[C@H]1CC[C@H]2[C@@H]3CC=C4C[C@@H](NCCCCC(=O)*)CC[C@]4(C)[C@H]3CC[C@]12C; Aib = CC(C)(N)C(=O)O; Ahx = NCCCCCC(=O)O; βAla = NCCC(=O)O

Tests used:
[1] = test system: endosomes of Jurkat lymphocytes; assay: Endosome disruption in Jurkat lymphocytes: release of carboxyfluorescein from disulfide probe Compound 2, flow cytometry; settings: for Efficacy (% of max. 1): % change in cellular fluorescence relative to maximal response of Compound 1 (100%); for Efficacy (% of max. 1) / Efficacy (% of 1): Jurkat; for Efficacy (% of 1): % of the effect of compound 1, calculated span of dose-response curve, ± standard deviation
How it was run: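 Human Jurkat cells treated with compounds plus disulfide probe Compound 2 (2.5 μM) for 14 h at 37 °C. Cytoplasmic release of pH-sensitive fluorophore Compound 3 quantified by flow cytometry. IC50 by non-linear regression; efficacy as % fluorescence change relative to Compound 1 maximum (100%).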

[2] = Thermodynamic solubility in PBS (pH 7.4); format: physicochemical; settings: phosphate buffered saline
Text: Values in parentheses represent 95% confidence intervals. N.D., not determined.
Measurements represent duplicate or more replicates, with active peptides subjected to multiple replicates. ND: not determined. The peptide was non-toxic and soluble in cell culture medium at this concentration.

[3] = pH 7.4, Table 1, PBS pH 7.4, 24 hours at 22° C., ±S.D., read-out: Solubility (aq.)
[4] = read-out: Potency (EC50), Table 1, Jurkat lymphocytes, probe Compound 2 (2.5 μM), 14 hours, 95% confidence interval in neighbouring cell
[5] = read-out: Potency, Table 2, EC50 ± standard deviation, Jurkat lymphocytes, disulfide-linked fluorescent probe (2.5 μM), 14 h
[6] = pH 7.4, Table 3, PBS pH 7.4, 24 h at 22° C., read-out: Solubility
[7] = read-out: Toxicity, Table 3, IC50, Jurkat, 48 h at 37° C., footnote a: non-toxic and soluble in cell culture medium at this concentration

Row | Structure (SMILES) | EC50 ([1]; 14 h) | solubility thermodynamic at 24 h [2, 3] | IC50 (Jurkat lymphocytes; 48 h) | Efficacy (% of max. 1) ([1]; Table 1, 14 hours) | Efficacy (% of 1) ([1]; Table 2, 14 h) | EC50 [1, 4] | EC50 [1, 5] | solubility thermodynamic at 24 h [2, 6] | IC50 (Jurkat lymphocytes; [7]) | IC50 (Jurkat lymphocytes; read-out: Toxicity (IC50), Table 1, Jurkat lymphocytes, 48 h at 37° C.)
1 | CC(C)CCC[C@@H](C)[C@H]1CC[C@H]2[C@@H]3CC=C4C[C@@H](NCCCCC(=O)NCCC(=O)N[C@@H](CCC(=O)O)C(=O)N[C@@H](CCC(=O)O)C(=O)NCCCCCC(=O)NCCCCCC(=O)NC(C)(C)C(=O)NC(C)(C)C(=O)NC(C)(C)C(=O)NC(C)(C)C(=O)N[C@@H](Cc5ccc(O)cc5)C(=O)N[C@@H](Cc5ccc(O)cc5)C(=O)N[C@@H](C)C(=O)N[C@@H](Cc5ccc(O)cc5)C(=O)N[C@@H](Cc5ccc(O)cc5)C(=O)N5CCC[C@H]5C(=O)N5CCC[C@H]5C(=O)N[C@H](C(=O)N[C@H](C(N)=O)C(C)C)C(C)C)CC[C@]4(C)[C@H]3CC[C@]12C [Compound 25, R = BEEXXUUUUYYAYYPPVV-CONH2] ({Pentanoyl(5-NH-cholesteryl)-βAla}-EE[Ahx][Ahx][Aib][Aib][Aib][Aib]YYAYYPPVV-NH2) | 0.09 µM | 22 ± 1 µM (≈ 54.9 µg/mL) | 9 µM |  |  |  |  |  |  | 
2 | CC(C)[C@H](NC(=O)[C@@H](NC(=O)[C@@H]1CCCN1C(=O)[C@@H]1CCCN1C(=O)[C@H](Cc1ccc(O)cc1)NC(=O)[C@H](Cc1c[nH]c2ccccc12)NC(=O)[C@H](C)NC(=O)[C@H](Cc1c[nH]c2ccccc12)NC(=O)[C@H](Cc1c[nH]c2ccccc12)NC(=O)C(C)(C)NC(=O)C(C)(C)NC(=O)C(C)(C)NC(=O)C(C)(C)N)C(C)C)C(N)=O [Compound 54] (H-[Aib][Aib][Aib][Aib]WWAWYPPVV-NH2) |  |  |  | 100% | 101 ± 2% | 3.8 µM | 5.4 ± 1.6 µM | 8 ± 1 µM (≈ 12.3 µg/mL) | > 16 µM | 
3 | CC(=O)NC(C)(C)C(=O)NC(C)(C)C(=O)NC(C)(C)C(=O)NC(C)(C)C(=O)N[C@@H](Cc1c[nH]c2ccccc12)C(=O)N[C@@H](Cc1c[nH]c2ccccc12)C(=O)N[C@@H](C)C(=O)N[C@@H](Cc1ccc(O)cc1)C(=O)N[C@@H](Cc1c[nH]c2ccccc12)C(=O)N1CCC[C@H]1C(=O)N1CCC[C@H]1C(=O)N[C@H](C(=O)N[C@@H](C)C(N)=O)C(C)C [Compound 42] (Ac-[Aib][Aib][Aib][Aib]WWAYWPPVA-NH2) |  | 11 ± 1 µM (≈ 17.1 µg/mL) |  | 85% |  | 5.3 µM |  |  |  | > 100 µM
4 | CC(C)[C@H](NC(=O)[C@@H](NC(=O)[C@@H]1CCCN1C(=O)[C@@H]1CCCN1C(=O)[C@H](Cc1c[nH]c2ccccc12)NC(=O)[C@H](Cc1c[nH]c2ccccc12)NC(=O)[C@H](C)NC(=O)[C@H](Cc1ccc(O)cc1)NC(=O)[C@H](Cc1c[nH]c2ccccc12)NC(=O)C(C)(C)NC(=O)C(C)(C)NC(=O)C(C)(C)NC(=O)C(C)(C)N)C(C)C)C(N)=O [Compound 53] (H-[Aib][Aib][Aib][Aib]WYAWWPPVV-NH2) |  |  |  | 104% | 96 ± 12% | 7.1 µM | 6.7 ± 0.8 µM | 29 ± 3 µM (≈ 44.7 µg/mL) | > 16 µM | 
